Earlier results in patent US20230364254A1, “METHODS FOR TREATING CANCERS WITH ANTIBODY DRUG CONJUGATES (ADC) THAT BIND TO 191P4D12 PROTEINS” (priority 2020, published 2023).
Where two headings read alike, the source gives them in different places.

What was measured:
[1] = tested on: metastatic urothelial cancer; conditions: cited from earlier work
[2] = tested on: acute myeloid leukemia (AML); conditions: administered alone; cited from earlier work
[3] = first line, patients ineligible for cisplatin, open-label single arm study
[4] = second-line, post-platinum, phase 3 study in 542 patients

Q: Which “ORR (n=2/19)” value ([1]; after platinum and CPI therapy) does the source give for `CC(=O)O[C@@]12CO[C@@H]1C[C@H](O)[C@@]1(C)C(=O)[C@H](O)C3=C(C)[C@@H](OC(=O)[C@H](O)[C@@H](NC(=O)OC(C)(C)C)c4ccccc4)C[C@@](O)([C@@H](OC(=O)c4ccccc4)[C@H]21)C3(C)C` [docetaxel] here?
A: 10.5%

Q: Which overall response rate ([1]; second-line treatment of metastatic disease) does the source give for `CC[C@]12C=CCN3CC[C@@]4(c5cc([C@@]6(C(=O)OC)C[C@@H]7C[C@@H](C(C)(F)F)CN(Cc8c6[nH]c6ccccc86)C7)c(OC)cc5N(C)[C@H]4[C@@](O)(C(=O)OC)[C@@H]1OC(C)=O)[C@@H]32` [vinflunine] here?
A: 9%

Q: And the hazard ratio ([1]; second-line, vinflunine+BSC vs BSC alone)?
A: 0.88

Q: What about the survival benefit ([1]; second-line, vinflunine+best supportive care (BSC) vs BSC alone) of the same molecule?
A: 2 months

Q: What about the survival ([1]; second-line, vinflunine+best supportive care (BSC)) of the same molecule?
A: 6.9 months

Q: Which “response in acute myeloid leukemia (AML) at relapse” value [2] does the source give for “CT-011: anti-PD-1 antibody, a humanized antibody” here?
A: failed to show response

Q: With “atezolizumab: anti-programmed death-ligand 1 (PD-L1) immune checkpoint inhibitor” as the molecule, how does the “median OS” value [1, 3] read?
A: 15.9 months

Q: And the “objective response rate (ORR)” value [1, 3]?
A: 23%

Q: And the “confirmatory phase 3 trial outcome” value ([1]; second-line)?
A: failed to meet its primary endpoint of OS

Q: With “pembrolizumab: humanized monoclonal IgG4 anti-PD-1 antibody” as the molecule, how does the ORR ([1]; first line, patients ineligible for cisplatin, open label single arm study in 370 patients) read?
A: 29%

Q: And the “difference in progression-free survival (PFS) between the two arms” value ([1]; second-line, post-platinum, phase 3, vs taxane chemotherapy or vinflunine)?
A: No statistically significant difference

Q: What about the ORR [1, 4] of the same molecule?
A: 21%

Q: And the OS [1, 4]?
A: 10.3 months
